The values below are quoted from earlier work in patent US11648213B2, “Transdermal therapeutic system containing asenapine” (LTS LOHMANN THERAPIE-SYSTEME AG, priority 2018, dated 2023).

The conditions of data set [1]: in vivo.
The target of data set [2] is serotonin 5-HT2A receptors (Homo sapiens, UniProt P28223). Particulars: antagonist.
Chain of serotonin 5-HT2A receptors (P28223 whole entry): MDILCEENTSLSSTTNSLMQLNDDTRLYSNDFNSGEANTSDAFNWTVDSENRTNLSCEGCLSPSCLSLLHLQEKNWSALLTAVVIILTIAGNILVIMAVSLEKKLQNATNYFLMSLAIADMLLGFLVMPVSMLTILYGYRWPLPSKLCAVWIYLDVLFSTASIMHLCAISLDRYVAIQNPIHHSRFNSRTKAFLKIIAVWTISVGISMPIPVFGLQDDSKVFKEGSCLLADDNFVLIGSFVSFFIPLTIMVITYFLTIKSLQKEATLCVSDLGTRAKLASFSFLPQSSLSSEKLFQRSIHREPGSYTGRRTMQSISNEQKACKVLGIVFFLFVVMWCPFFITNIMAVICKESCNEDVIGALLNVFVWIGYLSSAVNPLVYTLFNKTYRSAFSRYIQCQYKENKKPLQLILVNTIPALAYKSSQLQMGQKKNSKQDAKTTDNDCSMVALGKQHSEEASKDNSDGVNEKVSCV

Regarding `CN1C[C@H]2c3ccccc3Oc3ccc(Cl)cc3[C@@H]2C1` (relative stereo) [asenapine, (3aRS,12bRS)-rel-5-chloro-2,3,3a,12b-tetrahydro-2-methyl-1H-dibenz[2,3:6,7]oxepino[4,5-c]pyrrole], the terminal disposition half-life (following sublingual administration, therapeutic doses) is at least 24 h. The bioavailability (usually dose-corrected exposure relative to a reference, in per cent) (if ingested) is below 2%. The “Somnolence and anxiety (very common), share of the patients” value in data set [1] was at least 10%. The “affinity to serotonin 5-HT2A receptors” value in data set [2] was “high affinity”.
